Reference: ChEMBL document CHEMBL1151365, “The isolation and identification of several trichothecene mycotoxins from Fusarium heterosporum” (J Nat Prod, 1981)

Key:
Format in all cases: organism-based
Oryctolagus cuniculus = organism: Oryctolagus cuniculus; assay: Dermal toxicity in rabbit skin; details: in vivo
Triticum aestivum [1] = assay: (§1) Toxicity in Triticum aestivum assessed as inhibition of coleoptiles growth at 1 mM; details: in vivo, 1000 µM
Triticum aestivum [2] = assay: Toxicity in Triticum aestivum assessed as inhibition of coleoptiles growth at 0.1 mM; details: in vivo, 100 µM
Triticum aestivum [3] = assay: Toxicity in Triticum aestivum assessed as inhibition of coleoptiles growth at 0.01 mM; details: in vivo, 10 µM
[4] = as §1; details: Triticum aestivum coleoptiles, read-out: Activity

| Structure (SMILES) | ED50 (Oryctolagus cuniculus) | Activity (Triticum aestivum [1]) | Activity (Triticum aestivum [2]) | Activity (Triticum aestivum [3]) | inhibition at 1000 µM [4] |
| --- | --- | --- | --- | --- | --- |
| CC1=C[C@H]2O[C@@H]3[C@H](O)[C@@H](O)[C@](C)([C@@]2(CO)C[C@@H]1O)[C@]31CO1 | > 1.28 µg |  |  |  |  |
| CC(=O)OC[C@]12C[C@H](OC(=O)CC(C)(C)O)C(C)=C[C@H]1O[C@@H]1[C@H](O)[C@@H](O)[C@@]2(C)[C@]12CO2 | > 1.28 µg | Toxic | Toxic | Toxic |  |
| CC(=O)OC[C@]12C[C@H](O)C(C)=C[C@H]1O[C@@H]1[C@H](O)[C@@H](O)[C@@]2(C)[C@]12CO2 | > 1.28 µg |  |  |  | 59% |
| CC1=C[C@H]2O[C@@H]3[C@H](O)[C@@H](O)[C@](C)([C@@]2(CO)C[C@@H]1OC(=O)CC(C)(C)O)[C@]31CO1 | > 1.28 µg | Toxic | Toxic | Toxic |  |
| CC(=O)OC[C@]12C[C@H](OC(=O)CC(C)C)C(C)=C[C@H]1O[C@@H]1[C@H](O)[C@@H](O)[C@@]2(C)[C@]12CO2 [HT-2 TOXIN] | 0.16 µg | Toxic | Toxic | Toxic |  |
| CC(=O)OC[C@]12C[C@H](OC(=O)CC(C)C)C(C)=C[C@H]1O[C@@H]1[C@H](O)[C@@H](OC(C)=O)[C@@]2(C)[C@]12CO2 [T-2 TOXIN] | < 0.16 µg | Toxic | Toxic | Toxic |  |
